Test results as given in patent US20250140406A1, “CLASSIFYING TUMORS AND PREDICTING RESPONSIVENESS” (Oncocyte Corporation, priority 2022, published 2025).
Read-outs that look alike come from different tables or passages of the source.

How the values were obtained:
Type in all cases: cell-based
cancer cell lines = assay: Correlation of gene expression with PRISM compound sensitivity across cell lines (gene:compound correlate pairs); set-up: key: Pearson correlation of gene expression with compound sensitivity
Protocol: This list of genes (based upon gene expression and gene dependency) was analyzed by Pearson correlation with the compound sensitivity data across the training cell lines. Correlation values, p values, q values and local false discovery rates were calculated. This analysis was repeated using the same set of compounds and genes on the test set of cell lines.
A negative correlation means that the importance of the expression of that gene to cell health was linked to increased compound sensitivity. • compound gene dep train pvalue: Measure of significance for this association. • compound gene dep test corr: Correlation of gene dependency with compound sensitivity in the test data set. • TNBCType train: Classification of association of the compound sensitivity with the IM, MSL and M cell line classes in the training data set. • DTIO Corr train: Association of the compound sensitivity with the DetermaIO cell line classes in the training data set. • TNBCType test: Classification of the association of the compound sensitivity with the IM, MSL and M cell line classes in the test data set. • DTIO Corr test: Association of the compound sensitivity with the DetermaIO cell line classes in the test data set.

[1] = tested on: cancer cell lines classified IM, MSL, M; assay: PRISM screen compound sensitivity correlated with IM, MSL and M subtype of cell lines (101 gene signature); details: for IM Corr test: correlation of PRISM compound sensitivity with IM subtype correlation; for M Corr test: correlation of PRISM compound sensitivity with M subtype correlation; for MSL Corr test: correlation of PRISM compound sensitivity with MSL subtype correlation; for TNBCType train: 101 gene signature
[2] = tested on: cancer cell lines, DetermaIO classes; assay: Association of PRISM compound sensitivity with DetermaIO (DTIO) cell line classes
[3] = correlation of PRISM compound sensitivity with DTIO (DetermaIO), test cell set (188 cell lines)
[4] = correlation of PRISM compound sensitivity with DTIO (DetermaIO), training cell set (371 cell lines)
[5] = correlation of compound sensitivity with DetermaIO (DTIO), test set
[6] = correlation of compound sensitivity with DetermaIO (DTIO), training set
[7] = correlation of PRISM compound sensitivity with DTIO, test cell set
[8] = correlation of PRISM compound sensitivity with DTIO, training cell set

SMILES: Cc1cc(CN2CCN(c3c(Br)cnc4nc(-c5ccc(N6CCN(C)CC6)cc5)[nH]c34)CC2)no1 [CCT137690]
- compound gene train corr (cancer cell lines): −0.1607
- IM Corr test ([1]; test cell set (188 cell lines)): −0.03424
- M Corr test ([1]; test cell set (188 cell lines)): −0.09289
- MSL Corr test ([1]; test cell set (188 cell lines)): −0.02426

SMILES: COc1cc2c(NC3CCN(C(C)C)CC3)nc(N3CCC(F)(F)CC3)nc2cc1OCCCN1CCCC1 [UNC0642]
- compound gene test corr (cancer cell lines): −0.295
- compound gene train corr (cancer cell lines): −0.1787
- DTIO Corr test [2, 3]: −0.1219
- DTIO Corr train [2, 4]: −0.0704
- DTIO Corr test [2, 5]: −0.1219
- DTIO Corr train [2, 6]: −0.0704
- IM Corr test ([1]; test cell set (188 cell lines)): −0.2049
- M Corr test ([1]; test cell set (188 cell lines)): 0.1456
- MSL Corr test ([1]; test cell set (188 cell lines)): 0.1789

SMILES: CCOC(=O)c1ncc2[nH]c3ccc(OCc4ccccc4)cc3c2c1COC.Cl [ZK-93423]
- compound gene test corr (cancer cell lines): −0.2447
- compound gene train corr (cancer cell lines): −0.1712
- DTIO Corr test [2, 7]: 0.1767
- DTIO Corr train [2, 8]: 0.1098
- DTIO Corr test [2, 5]: 0.1767
- DTIO Corr train [2, 6]: 0.1098
- IM Corr test ([1]; test cell set): 0.2068
- M Corr test ([1]; test cell set): −0.1479
- MSL Corr test ([1]; test cell set): −0.01274

SMILES: Cc1occc(=O)c1[O-].Cc1occc(=O)c1[O-].[O]=[V+2] [bis(maltolato)oxovanadium(IV)]
- compound gene train corr (cancer cell lines): −0.1081

SMILES: CC1(S(=O)(=O)[O-])CC(=O)c2ccccc2C1=O.[Na+] (stereo not shown) [menadione-bisulfite]
- compound gene test corr (cancer cell lines; gene CHL1, test cell lines): −0.2459
- compound gene train corr (cancer cell lines; gene CHL1, training cell lines): −0.1641
- compound gene test corr (cancer cell lines; gene COL19A1, test cell lines): −0.2615
- compound gene train corr (cancer cell lines; gene COL19A1, training cell lines): −0.2071
- compound gene test corr (cancer cell lines; gene DSTYK, test cell lines): −0.2853
- compound gene train corr (cancer cell lines; gene DSTYK, training cell lines): −0.1942
- compound gene test corr (cancer cell lines; gene FCGR2A, test cell lines): −0.2554
- compound gene train corr (cancer cell lines; gene FCGR2A, training cell lines): −0.1722
- compound gene test corr (cancer cell lines; gene FCRLA, test cell lines): −0.2647
- compound gene train corr (cancer cell lines; gene FCRLA, training cell lines): −0.2401
- compound gene test corr (cancer cell lines; gene GHR, test cell lines): −0.2974
- compound gene train corr (cancer cell lines; gene GHR, training cell lines): −0.1701
- compound gene test corr (cancer cell lines; gene LUM, test cell lines): −0.3259
- compound gene train corr (cancer cell lines; gene LUM, training cell lines): −0.1958
- compound gene test corr (cancer cell lines; gene LZTS1, test cell lines): −0.3133
- compound gene train corr (cancer cell lines; gene LZTS1, training cell lines): −0.1907
- compound gene test corr (cancer cell lines; gene NCKAP5L, test cell lines): −0.3161
- compound gene train corr (cancer cell lines; gene NCKAP5L, training cell lines): −0.1648
- compound gene test corr (cancer cell lines; gene P2RX7, test cell lines): −0.2585
- compound gene train corr (cancer cell lines; gene P2RX7, training cell lines): −0.2054
- compound gene test corr (cancer cell lines; gene PLEKHO1, test cell lines): −0.2511
- compound gene train corr (cancer cell lines; gene PLEKHO1, training cell lines): −0.1601
- compound gene test corr (cancer cell lines; gene PLEKHO2, test cell lines): −0.3003
- compound gene train corr (cancer cell lines; gene PLEKHO2, training cell lines): −0.2127
- compound gene test corr (cancer cell lines; gene PLP1, test cell lines): −0.2422
- compound gene train corr (cancer cell lines; gene PLP1, training cell lines): −0.2332
- compound gene test corr (cancer cell lines; gene PLPP7, test cell lines): −0.2843
- compound gene train corr (cancer cell lines; gene PLPP7, training cell lines): −0.1831
- compound gene test corr (cancer cell lines; gene QKI, test cell lines): −0.2736
- compound gene train corr (cancer cell lines; gene QKI, training cell lines): −0.2164
- compound gene test corr (cancer cell lines; gene SYNM, test cell lines): −0.2591
- compound gene train corr (cancer cell lines; gene SYNM, training cell lines): −0.1742
- compound gene test corr (cancer cell lines; gene TAMALIN, test cell lines): −0.254
- compound gene train corr (cancer cell lines; gene TAMALIN, training cell lines): −0.1641
- compound gene test corr (cancer cell lines; gene WWTR1, test cell lines): −0.2508
- compound gene train corr (cancer cell lines; gene WWTR1, training cell lines): −0.1794
- compound gene test corr (cancer cell lines; gene ZCCHC24, test cell lines): −0.3161
- compound gene train corr (cancer cell lines; gene ZCCHC24, training cell lines): −0.1708
- DTIO Corr test [2, 7]: 0.1362
- DTIO Corr train [2, 8]: 0.003549
- DTIO Corr test ([2]; test set): 0.1362
- DTIO Corr train ([2]; training set): 0.003549
- IM Corr test ([1]; test cell set (188 cell lines)): 0.1925
- M Corr test ([1]; test cell set (188 cell lines)): −0.2026
- MSL Corr test ([1]; test cell set (188 cell lines)): −0.1086

SMILES: COC(=O)CC[C@@H]1N=C(c2ccccn2)c2cc(Br)ccc2-n2c(C)cnc21 [remimazolam]
- DTIO Corr test [2, 3]: −0.03395
- DTIO Corr train [2, 4]: −0.02892
- IM Corr test ([1]; test cell set (188 cell lines)): 0.03785
- M Corr test ([1]; test cell set (188 cell lines)): −0.0431
- MSL Corr test ([1]; test cell set (188 cell lines)): −0.1059
- TNBCType train ([1]; subtype (IM, MSL or M) assigned to the compound by negative correlation of PRISM sensitivity with subtype, training cell set (371 cell lines)): MSL

SMILES: COc1ccc([C@H]2CNC(=O)C2)cc1OC1CCCC1 [rolipram-S(+)]
- DTIO Corr test [2, 3]: −0.07222
- DTIO Corr train [2, 4]: −0.1043
- IM Corr test ([1]; test cell set (188 cell lines)): −0.03939
- M Corr test ([1]; test cell set (188 cell lines)): −0.06383
- MSL Corr test ([1]; test cell set (188 cell lines)): −0.06426

SMILES: C=C1CC[C@H](O)C/C1=C/C=C1\CCC[C@]2(C)[C@@H]([C@H](C)CC[C@@H](O)C(C)(C)O)CC[C@@H]12 [secalciferol]
- DTIO Corr test [2, 7]: −0.09515
- DTIO Corr train [2, 8]: −0.06151
- IM Corr test ([1]; test cell set (188 cell lines)): −0.1254
- M Corr test ([1]; test cell set (188 cell lines)): 0.07866
- MSL Corr test ([1]; test cell set (188 cell lines)): −0.05502

SMILES: C/C(=N\NC(=N)N)c1cc(NC(=O)CCCCCCCCC(=O)Nc2cc(/C(C)=N/NC(=N)N)cc(/C(C)=N/NC(=N)N)c2)cc(/C(C)=N/NC(=N)N)c1 [semapimod]
- DTIO Corr test [2, 7]: 0.207
- DTIO Corr train [2, 8]: 0.01264
- IM Corr test ([1]; test cell set): 0.1267
- M Corr test ([1]; test cell set): −0.09225
- MSL Corr test ([1]; test cell set): −0.0812
- TNBCType train ([1]; subtype (IM, MSL or M) with which PRISM compound sensitivity is negatively correlated, training cell set): MSL

SMILES: COc1ccc(-c2cc(=O)c3c(OC)c(OC)c(OC)c(OC)c3o2)cc1 [tangeritin]
- DTIO Corr test [2, 7]: −0.01838
- DTIO Corr train [2, 8]: −0.09411
- IM Corr test ([1]; test cell set): −0.06559
- M Corr test ([1]; test cell set): 0.04891
- MSL Corr test ([1]; test cell set): −0.06252

SMILES: c1cc2c(cc1C1CCCCC1)c1c3n2CCNC3CCC1 (stereo not shown) [tetrindole]
- DTIO Corr test [2, 7]: −0.04907
- DTIO Corr train [2, 8]: −0.09692
- IM Corr test ([1]; test cell set (188 cell lines)): −0.02376
- M Corr test ([1]; test cell set (188 cell lines)): 0.06046
- MSL Corr test ([1]; test cell set (188 cell lines)): 0.06072
